The values that follow come from patent US8486654B2, “Compositions and methods for measuring 3,6-L-AHG transferase activity and 3,6-L-AHG” (Samsung Electronics Co., Ltd., priority 2010, dated 2013).

Each structure is given as a SMILES string.

The test system of this assay is 3,6-L-AHG transferase. Nature of the assay: Quantitative analysis of 3,6-L-AHG with the final active fraction and NADP^+ (absorbance at 339 nm). It counts as biochemical, Saccharophagus degradans. As to conditions: 50 minute reaction, relative concentrations 1, 0.5, 0.25, 0.1 and 0.05 (1 = 20 mg/mL), FIG. 1. Here is the method: 7.5 μl of the final active fraction obtained in Preparation Example 2, 0.1 mM of NADP^+, and 50 mM of Tris-HCl (pH 8.0) are mixed to prepare 100 μl of a composition for quantitative analysis of 3,6-L-AHG.
An amount of 3,6-L-AHG is added to various 100 μl samples of the composition for quantitative analysis of 3,6-L-AHG obtained in Preparation Example 4 to achieve dilution factors for the 3,6-L-AHG of 1, 0.5, 0.25, 0.1 and 0.05 in terms of relative concentrations. A relative 3,6-L-AHG concentration of 1 corresponds to 20 mg/mL. Reaction is carried out for 50 minutes, and then absorbance is measured at 339 nm using a microplate spectrophotometer (Bio-Tek Instruments, Inc.) according to the End-point UV method.

Turning to `O=C[C@@H](O)[C@@H]1OC[C@H](O)[C@H]1O` [3,6-L-AHG, 3,6-anhydro-L-galactose], the “amount of NADPH produced versus amount of 3,6-L-AHG in the sample” value was “linearly related”.
